According to patent US20200069691A1, “HETEROCYCLIC COMPOUNDS AS HIV PROTEASE INHIBITORS” (Merck Sharp & Dohme Corp., priority 2016, published 2020):

Target: T1, wild-type HIV-1 protease (Human immunodeficiency virus type 1 group M subtype B, UniProt P04585)
T1 construct: Escherichia coli expressed wild-type HIV-1 protease protein
Experiment: Assay for Inhibition of Microbial Expressed HIV Protease (peptide substrate cleavage, LC-MS/MS readout)
Assay type: biochemical
Conditions: E. coli expressed wild-type HIV-1 protease, mean of at least two independent experiments, read-out: HIV Pr Enzyme HIV1 PR IC50
In short: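 Cleavage of Val-Ser-Gln-Asn-(β-naphthyl)Ala-Pro-Ile-Val (400 μM) by recombinant HIV-1 protease ([…]) ran 1 h at 30 °C after a 30 min room-temperature inhibitor preincubation in 50 mM sodium acetate pH 5.5. Product peak areas by LC-MS/MS gave inhibition; values average at least two independent runs.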

Compound | IC50 [µM]
Cc1nc2c([nH]1)CN(C(=O)c1cccc(CN3C(=N)NC(CC(C)C)(c4ccccc4)C3=O)c1)C2 (stereo not drawn) [Compound 274, 2-imino-3-{3-[(2-methyl-4,6-dihydropyrrolo[3,4-d]imidazol-5(1H)-yl)carbonyl]benzyl}-5-(2-methylpropyl)-5-phenylimidazolidin-4-one] | 0.0288
N=C1N[C@](CCCC(F)(F)F)(c2ccc(F)cc2)C(=O)N1Cc1ccc(C(F)(F)F)c(C(=O)N2Cc3cnc(-c4ccncc4)nc3C2)c1 [Compound 53, (5R)-5-(4-fluorophenyl)-2-imino-3-{3-[(2-pyridin-4-yl-5,7-dihydro-6H-pyrrolo[3,4-d]pyrimidin-6-yl)carbonyl]-4-(trifluoromethyl)-benzyl}-5-(4,4,4-trifluorobutyl)-imidazolidin-4-one] | 0.00563
N=C1NC(c2ccc(F)cc2)(c2ccc(F)cc2)C(=O)N1Cc1cccc(C(=O)N2Cc3ccccc3C2)c1 [Compound 195, 3-[3-(1,3-dihydro-2H-isoindol-2-ylcarbonyl)benzyl]-5,5-bis(4-fluorophenyl)-2-iminoimidazolidin-4-one] | 0.0569
N=C1N[C@](CCCC(F)(F)F)(c2ccc(F)cc2)C(=O)N1Cc1ccc(C(F)(F)F)c(C(=O)N2Cc3cnc(-c4cncnc4)nc3C2)c1 [Compound 49, (5R)-5-(4-fluorophenyl)-2-imino-3-{3-[(2-pyrimidin-5-yl-5,7-dihydro-6H-pyrrolo[3,4-d]pyrimidin-6-yl)carbonyl]-4-(trifluoromethyl)-benzyl}-5-(4,4,4-trifluorobutyl)-imidazolidin-4-one] | 0.00543
CC(=O)N1CCN(C(=O)c2cccc(CN3C(=N)NC(c4ccc(F)cc4)(c4ccc(F)cc4)C3=O)c2)CC1 [Compound 335, 3-{3-[(4-acetylpiperazin-1-yl)carbonyl]benzyl}-5,5-bis(4-fluorophenyl)-2-iminoimidazolidin-4-one] | 0.0705
N=C1NC(c2ccccc2)(c2ccccc2)C(=O)N1Cc1cccc(C(=O)N2CCn3nc(C(F)(F)F)nc3C2)c1 [Compound 343, 2-imino-5,5-diphenyl-3-(3-{[2-(trifluoromethyl)-5,6-dihydro-[1,2,4]triazolo[1,5-a]pyrazin-7(8H)-yl]carbonyl}benzyl) imidazolidin-4-one] | 0.0798
N=C1NC(c2ccc(F)cc2)(c2ccc(F)cc2)C(=O)N1Cc1cccc(C(=O)N2CCC(n3c(=O)[nH]c4ncccc43)CC2)c1 [Compound 332, 1-{1-[(3-{[4,4-bis(4-fluorophenyl)-2-imino-5-oxoimidazolidin-1-yl]methyl}phenyl)carbonyl]piperidin-4-yl}-1,3-dihydro-2H-imidazo[4,5-b]pyridin-2-one] | 0.068
CCCC1(c2ccccc2)NC(=N)N(Cc2cccc(C(=O)N3Cc4ccccc4C3)c2)C1=O (stereo not drawn) [Compound 236, 3-[3-(1,3-dihydro-2H-isoindol-2-ylcarbonyl)benzyl]-2-imino-5-phenyl-5-propylimidazolidin-4-one] | 0.0144
CC(C)CC1(c2ccccc2)NC(=N)N(Cc2cccc(C(=O)N3Cc4cncnc4C3)c2)C1=O (stereo not drawn) [Compound 253, 3-[3-(5,7-dihydro-6H-pyrrolo[3,4-d]pyrimidin-6-ylcarbonyl)benzyl]-2-imino-5-(2-methylpropyl)-5-phenylimidazolidin-4-one] | 0.0201
COc1ccc2c(c1)CCN(C(=O)c1cc(CN3C(=N)NC(c4ccc(F)cc4)(c4ccc(F)cc4)C3=O)ccc1C(F)(F)F)CC2 [Compound 165, 5.5-bis(4-fluorophenyl)-2-imino-3-{3-[(7-methoxy-1,2,4,5-tetrahydro-3H-3-benzazepin-3-yl)carbonyl]-4-(trifluoromethyl)benzyl} imidazolidin-4-one] | 0.0341
N=C1N[C@](CCC2CC2)(c2ccc(F)cc2)C(=O)N1[C@@H]1CCCCc2ccc(C(=O)N3Cc4nccnc4C3)cc21 [Compound 93, (5R)-5-(2-cyclopropylethyl)-3-[(5R)-3-(5,7-dihydro-6H-pyrrolo-[3,4-b]pyrazin-6-ylcarbonyl)-6,7,8,9-tetrahydro-5H-benzo-[7]annulen-5-yl]-5-(4-fluoro-phenyl)-2-iminoimidazolidin-4-one] | 0.0185
CC(C)CC1(c2ccccc2)NC(=N)N(Cc2ccc(Cl)c(C(=O)N3Cc4cnc(C#N)nc4C3)c2)C1=O (stereo not drawn) [Compound 364, 6-[(2-chloro-5-{[2-imino-4-(2-methylpropyl)-5-oxo-4-phenylimidazolidin-1-yl]methyl}phenyl)carbonyl]-6,7-dihydro-5H-pyrrolo[3,4-d]pyrimidine-2-carbonitrile] | 0.00417
N=C1NC(c2ccc(F)cc2)(c2ccccn2)C(=O)N1Cc1cccc(C(=O)N2Cc3[nH]nc(C(F)(F)F)c3C2)c1 (stereo not drawn) [Compound 248, 5-(4-fluorophenyl)-2-imino-5-pyridin-2-yl-3-(3-{[3-(trifluoromethyl)-4,6-dihydropyrrolo [3,4-c]pyrazol-5(1H)-yl]carbonyl}benzyl) imidazolidin-4-one] | 0.018
N=C1NC(c2ccccc2)(c2ccccc2)C(=O)N1Cc1cccc(C(=O)N2Cc3cc(Cl)c(Cl)cc3C2)c1 [Compound 271, 3-{3-[(5,6-dichloro-1,3-dihydro-2H-isoindol-2-yl)carbonyl]benzyl}-2-imino-5,5-diphenylimidazolidin-4-one] | 0.0279
N=C1NC(c2ccccc2)(c2ccccc2)C(=O)N1Cc1cc(F)cc(C(=O)N2CCn3c(nnc3C(F)(F)F)C2)c1 [Compound 341] | 0.0775
COc1ccc(CN2C(=N)NC(c3ccccc3)(c3ccccc3)C2=O)cc1C(=O)N1Cc2cccc(F)c2C1 [Compound 372, 3-{3-[(4-fluoro-1,3-dihydro-2H-isoindol-2-yl)carbonyl]-4-methoxybenzyl}-2-imino-5,5-diphenylimidazolidin-4-one] | 0.00691
C[C@H](c1cccc(C(=O)N2Cc3nccnc3C2)c1)N1C(=N)NC(c2ccccc2)(c2ccccc2)C1=O [Compound 185, 3-{(1R)-1-[3-(5,7-dihydro-6H-pyrrolo[3,4-b]pyrazin-6-ylcarbonyl)phenyl]ethyl}-2-imino-5,5-diphenylimidazolidin-4-one] | 0.0405
N=C1N[C@](CCCC(F)(F)F)(c2ccc(F)cc2)C(=O)N1Cc1ccc(C(F)(F)F)c(C(=O)N2Cc3cnc(-c4cccnc4)nc3C2)c1 [Compound 47, (5R)-5-(4-fluorophenyl)-2-imino-3-{3-[(2-pyridin-3-yl-5,7-dihydro-6H-pyrrolo[3,4-d]pyrimidin-6-yl)carbonyl]-4-(trifluoromethyl)-benzyl}-5-(4,4,4-trifluorobutyl)-imidazolidin-4-one] | 0.00491
C[C@@H](c1cccc(C(=O)N2Cc3ccccc3C2)c1)N1C(=N)NC(c2ccc(F)cc2)(c2ccc(F)cc2)C1=O [Compound 325, 3-{(1S)-1-[3-(1,3-dihydro-2H-isoindol-2-ylcarbonyl)phenyl]ethyl}-5,5-bis(4-fluorophenyl)-2-iminoimidazolidin-4-one] | 0.0585
COC(=O)N1CCN(C(=O)c2cccc(CN3C(=N)NC(c4ccc(F)cc4)(c4cccc(C#N)c4)C3=O)c2)CC1 (stereo not drawn) [Compound 350, methyl 4-[(3-{[4-(3-cyanophenyl)-4-(4-fluorophenyl)-2-imino-5-oxoimidazolidin-1-yl]methyl}phenyl)carbony1] piperazine-1-carboxylate] | 0.0853
CC(C)CCC1(c2cccc(-c3cccnc3)c2)NC(=N)N(Cc2cccc(C(=O)N3Cc4ccccc4C3)c2)C1=O (stereo not drawn) [Compound 277, 3-[3-(1,3-dihydro-2H-isoindol-2-ylcarbonyl)benzyl]-2-imino-5-(3-methylbutyl)-5-(3-pyridin-3-ylphenyl)imidazolidin-4-one] | 0.0298
CC(C)CCC1(c2cccc(-c3cccnc3)c2)NC(=N)N(Cc2cccc(C(=O)N3Cc4nccnc4C3)c2)C1=O (stereo not drawn) [Compound 304, 3-[3-(5,7-dihydro-6H-pyrrolo[3,4-b]pyrazin-6-ylcarbonyl)benzyl]-2-imino-5-(3-methylbutyl)-5-(3-pyridin-3-ylphenyl)imidazolidin-4-one] | 0.0459
CS(=O)(=O)Nc1cccc(-c2ncc3c(n2)CN(C(=O)c2cc(CN4C(=N)N[C@](CCCC(F)(F)F)(c5ccc(F)cc5)C4=O)ccc2C(F)(F)F)C3)c1 [Compound 44, N-[3-(6-{[5-{[(4R)-4-(4-fluorophenyl)-2-imino-5-oxo-4-(4,4,4-trifluorobutyl)imidazolidin-1-yl]methyl}-2-(trifluoromethyl)-phenyl]carbonyl}-6,7-dihydro-5H-pyrrolo[3,4-d]pyrimidin-2-yl)phenyl]methanesulfonamide] | 0.00455
CNC(=O)N1CCN(C(=O)c2cc(CN3C(=N)N[C@](CCCC(F)(F)F)(c4ccc(F)cc4)C3=O)ccc2C(F)(F)F)CC1 [Compound 115, 4-{[5-{[(4R)-4-(4-fluorophenyl)-2-imino-5-oxo-4-(4,4,4-trifluoro-butyl)imidazolidin-1-yl]methyl}-2-(trifluoromethyl)phenyl]carbonyl}-N-methylpiperazine-1-carboxamide] | 0.0365
CN1CCN(C(=O)c2cc(CN3C(=N)NC(c4ccccc4)(c4ccccc4)C3=O)ccc2Cl)CC1=O [Compound 378, 4-({2-chloro-5-[(2-imino-5-oxo-4,4-diphenylimidazolidin-1-yl)methyl]phenyl}carbonyl)-1-methylpiperazin-2-one] | 0.0106
N=C1NC(c2ccc(F)cc2)(c2ccc(F)cc2)C(=O)N1Cc1cc(C(=O)N2Cc3ccccc3C2)ccn1 [Compound 398, 3-{[4-(1,3-dihydro-2H-isoindol-2-ylcarbonyl)pyridin-2-yl]methyl}-5,5-bis(4-fluorophenyl)-2-iminoimidazolidin-4-one] | 0.0192
N=C1N[C@](CCC2CC2)(c2ccc(F)cc2)C(=O)N1[C@@H]1CCOc2ccc(C(=O)N3Cc4nccnc4C3)cc21 [Compound 107, (5R)-5-(2-cyclopropylethyl)-3-[(4R)-6-(5,7-dihydro-6H-pyrrolo-[3,4-b]pyrazin-6-ylcarbonyl)-3,4-dihydro-2H-chromen-4-yl]-5-(4-fluorophenyl)-2-iminoimidazolidin-4-one] | 0.0259
